Measurements taken from article PMC8000448, “Inhibitory Effects of Schisandra Lignans on Cytochrome P450s and Uridine 5′-Diphospho-Glucuronosyl Transferases in Human Liver Microsomes” (Pharmaceutics, 2021).
Where two headings read alike, the source gives them in different places.

What was measured:
[1] = biological target: T1, CYP2B6 (Homo sapiens, UniProt P20813); assay: CYP2B6 inhibition in HLMs (bupropion); assay type: in vitro ADME
T1 construct: pooled HLMs (0.25 mg/mL); tissue XenoTech H2630; host or cells: pooled human liver microsomes, mixed gender
T1 sequence (P20813 1-491): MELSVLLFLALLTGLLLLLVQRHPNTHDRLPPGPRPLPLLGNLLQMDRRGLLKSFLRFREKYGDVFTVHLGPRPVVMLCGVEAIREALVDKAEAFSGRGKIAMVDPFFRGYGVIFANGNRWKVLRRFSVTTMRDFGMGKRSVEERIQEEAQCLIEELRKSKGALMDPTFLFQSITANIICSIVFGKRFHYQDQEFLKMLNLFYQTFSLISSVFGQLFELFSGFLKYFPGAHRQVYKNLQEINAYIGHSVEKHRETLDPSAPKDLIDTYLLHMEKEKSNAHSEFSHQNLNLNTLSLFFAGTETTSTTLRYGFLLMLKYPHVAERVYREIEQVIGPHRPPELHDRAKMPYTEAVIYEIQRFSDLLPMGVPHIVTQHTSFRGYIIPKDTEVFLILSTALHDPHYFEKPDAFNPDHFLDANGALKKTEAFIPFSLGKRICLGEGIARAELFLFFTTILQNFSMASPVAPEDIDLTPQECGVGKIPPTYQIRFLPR
Procedure: (§1) Lignans were first dissolved in methanol. […] All microsomal incubations were performed in triplicate.

[2] = tested on: nine P450 enzymes; assay: P450 inhibition in HLMs, summary statements over several isoforms; assay type: in vitro ADME, human; conditions: HLMs pre-incubated in the presence of NADPH
Procedure: as §1

[3] = tested on: P450s other than CYP1A2, CYP2B6, CYP2C19, CYP2E1 and CYP3A (range over several isoforms); assay: as above; assay type: in vitro ADME, human; conditions: human, pooled human liver microsomes, pH 7.4, probe P450 probe substrate cocktails (sets A and B); HLMs; reversible inhibition; P450s other than CYP1A2, CYP2B6, CYP2C19, CYP2E1 and CYP3A
Procedure: as §1

[4] = tested on: recombinant CYP3A4; conditions: rCYP3A4, fluorescent substrate; cited from earlier work
[5] = biological target: T2, CYP2A6 (Homo sapiens, UniProt P11509); assay: CYP2A6 inhibition in HLMs (coumarin); assay type: in vitro ADME
T2 construct: pooled HLMs (0.25 mg/mL); tissue XenoTech H2630; host or cells: pooled human liver microsomes, mixed gender
T2 sequence (P11509 1-494): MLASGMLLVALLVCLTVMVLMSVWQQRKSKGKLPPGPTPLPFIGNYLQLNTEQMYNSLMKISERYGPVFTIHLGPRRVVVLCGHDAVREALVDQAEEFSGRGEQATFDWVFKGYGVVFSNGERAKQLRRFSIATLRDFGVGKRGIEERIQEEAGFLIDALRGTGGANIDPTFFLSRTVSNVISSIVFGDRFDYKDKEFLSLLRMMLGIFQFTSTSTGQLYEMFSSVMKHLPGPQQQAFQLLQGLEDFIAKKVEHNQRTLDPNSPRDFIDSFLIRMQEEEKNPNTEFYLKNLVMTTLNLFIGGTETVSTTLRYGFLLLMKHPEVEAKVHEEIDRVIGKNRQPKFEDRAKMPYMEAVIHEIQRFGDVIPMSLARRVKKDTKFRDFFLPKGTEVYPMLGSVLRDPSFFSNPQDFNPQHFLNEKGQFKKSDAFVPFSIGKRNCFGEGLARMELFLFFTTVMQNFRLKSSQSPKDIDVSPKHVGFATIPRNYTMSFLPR
Procedure: as §1

[6] = tested on: CYP1A2; set-up: method as in PMID 15342469; conditions: cited from earlier work
[7] = tested on: CYP3A; conditions: rats; cited from earlier work
[8] = biological target: CYP2C19 (Homo sapiens, UniProt P33261); assay: in vitro; conditions: microsomes, pH 7.4, IC50 Shift
Sequence of CYP2C19 (Homo sapiens, UniProt P33261) (P33261 whole entry): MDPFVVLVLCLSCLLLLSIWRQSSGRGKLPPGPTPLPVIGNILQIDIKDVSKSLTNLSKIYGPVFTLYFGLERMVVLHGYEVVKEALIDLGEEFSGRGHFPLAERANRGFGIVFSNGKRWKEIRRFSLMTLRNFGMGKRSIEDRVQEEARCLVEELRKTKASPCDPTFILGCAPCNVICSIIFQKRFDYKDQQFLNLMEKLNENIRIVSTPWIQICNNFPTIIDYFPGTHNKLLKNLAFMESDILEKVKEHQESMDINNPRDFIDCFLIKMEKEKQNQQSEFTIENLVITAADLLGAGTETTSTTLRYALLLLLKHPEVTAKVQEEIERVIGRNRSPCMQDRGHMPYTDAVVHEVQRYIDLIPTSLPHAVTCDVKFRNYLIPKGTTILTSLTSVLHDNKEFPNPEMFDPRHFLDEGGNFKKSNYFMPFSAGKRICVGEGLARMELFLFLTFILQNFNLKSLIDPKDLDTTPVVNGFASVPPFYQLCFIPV
Procedure: (§2) Lignans were first dissolved in methanol. The final organic solvent concentration in the incubation media was ≤1.0% (v/v). The microsomal incubation was conducted using two cocktail sets containing non-interactive substrates: set A containing phenacetin, bupropion, amodiaquine, diclofenac, S-mephenytoin, and dextromethorphan as substrates for CYP1A2, CYP2B6, CYP2C8, CYP2C9, CYP2C19, and CYP2D6, respectively; and set B containing coumarin and chlorzoxazone as substrates for CYP2A6 and CYP2E1, and midazolam, nifedipine, and testosterone as substrates for CYP3A4 (Table 1). These substrates are known to be selective for each P450 isoforms. Incubation mixtures containing potassium phosphate buffer (0.1 M, pH 7.4), pooled HLMs (0.25 mg/mL), P450 probe substrate cocktails, and lignan (0~50 μM) were pre-incubated at 37 °C (5 min). Following pre-incubation, an NADPH generating system (1.3 mM NADP^+, 3.3 mM G6P, 1 unit/mL G6PDH, and 3.3 mM MgCl2) was added to initiate the reaction, and further incubated for 10 min. The reaction was quenched with 50 μL of cold acetonitrile containing internal standard (IS; 7 nM trimipramine). After centrifugation at 14,000 rpm (5 min at 4 °C), aliquots of supernatants were filtered through a 0.2 μm membrane filter and were measured by liquid chromatography-tandem mass spectrometry (LC-MS/MS). All microsomal incubations were performed in triplicate.

[9] = tested on: CYP2C19; set-up: method as in PMID 15342469; conditions: cited from earlier work
[10] = tested on: CYP2C9; set-up: method as in PMID 15342469; conditions: cited from earlier work
[11] = biological target: CYP2C9 (Homo sapiens, UniProt P11712); assay: in vitro; conditions: microsomes, pH 7.4, IC50 Shift
Sequence of CYP2C9 (Homo sapiens, UniProt P11712) (P11712 whole entry): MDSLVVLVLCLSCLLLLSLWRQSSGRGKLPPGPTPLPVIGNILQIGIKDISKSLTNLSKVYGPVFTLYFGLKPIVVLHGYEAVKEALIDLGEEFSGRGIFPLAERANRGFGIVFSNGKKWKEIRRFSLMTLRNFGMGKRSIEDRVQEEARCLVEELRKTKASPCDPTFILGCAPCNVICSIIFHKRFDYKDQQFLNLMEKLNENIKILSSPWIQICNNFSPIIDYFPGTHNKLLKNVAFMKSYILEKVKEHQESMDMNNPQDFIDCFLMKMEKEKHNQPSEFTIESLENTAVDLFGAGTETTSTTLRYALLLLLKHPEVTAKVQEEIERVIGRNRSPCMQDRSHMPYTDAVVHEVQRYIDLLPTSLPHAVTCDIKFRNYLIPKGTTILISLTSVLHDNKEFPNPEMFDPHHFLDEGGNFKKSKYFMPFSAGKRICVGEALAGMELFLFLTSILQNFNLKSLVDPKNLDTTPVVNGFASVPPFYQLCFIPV
Procedure: as §2

[12] = tested on: CYP2D6; set-up: method as in PMID 15342469; conditions: cited from earlier work
[13] = tested on: CYP3A; set-up: method as in PMID 20448858; conditions: read-out: IC50, CYP3A-mediated midazolam hydroxylation; cited from earlier work
[14] = tested on: recombinant CYP3A4; conditions: recombinant CYP3A4 isoform; read-out: IC50, CYP3A-mediated midazolam 1′-hydroxylation; cited from earlier work
[15] = tested on: CYP3A4; conditions: in the presence of the inhibitor; cited from earlier work
[16] = tested on: CYP3A; set-up: method as in PMID 15342469; conditions: read-out: IC50, CYP3A-mediated testosterone hydroxylase activity; cited from earlier work
[17] = biological target: six UGT enzymes; assay: UGT inhibition in HLMs, summary statements over several isoforms; assay type: in vitro ADME, human; conditions: UGTs other than UGT1A1 and UGT1A3
Procedure: The inhibitory potential of six lignans on six UGT activities was evaluated using the previously developed cocktail method with slight modifications. […] These substrates are known to be selective for each UGT isoforms.

[18] = tested on: UGT1A3; set-up: method as in PMID 23339253; conditions: cited from earlier work
[19] = 30 min pre-incubation with NADPH generating system, read-out: IC50 TDI, CYP2B6
[20] = reversible inhibition, read-out: IC50 RI, CYP2B6
[21] = 30 min pre-incubation with NADPH generating system, read-out: IC50 TDI, CYP2A6
[22] = reversible inhibition, read-out: IC50 RI, CYP2A6

COc1cc2c(c(OC)c1OC)-c1c(cc(OC)c(OC)c1OC)C[C@](C)(O)[C@@H](C)C2 [Schisandrin, schisandrin]
IC50 [1, 19]: > 50 µM
IC50 [1, 20]: 14.7 µM
Inhibitory potential against nine P450s after pre-incubation with NADPH compared to untreated HLMs [2]: did not increase
IC50 at 10 min [3]: 22 to 43 µM
IC50 [4]: 32 µM
IC50 [5, 21]: > 50 µM
IC50 [5, 22]: 40.9 µM

COc1cc2c(c(OC)c1OC)-c1c(cc3c(c1OC)OCO3)C[C@H](C)[C@H](C)C2 [Gomisin N, gomisin N]
IC50 [1, 19]: > 50 µM
IC50 [1, 20]: 38.3 µM
IC50 [6]: > 10 µM
Oral bioavailability of drugs metabolized by CYP3A, including midazolam [7]: increase
IC50 shift at 10 min [8]: > 1.8
IC50 [9]: > 10 µM
IC50 [10]: > 10 µM
IC50 [5, 21]: > 50 µM
IC50 [5, 22]: 38.2 µM
IC50 shift at 10 min [11]: > 1.8
IC50 [12]: > 10 µM
IC50 [13]: 5.5 µM

COc1cc2c(c(OC)c1OC)-c1c(cc3c(c1OC)OCO3)C[C@H](C)[C@](C)(O)[C@H]2OC(=O)c1ccccc1 [Gomisin C, gomisin C]
IC50 [1, 19]: > 50 µM
IC50 [1, 20]: 33.1 µM
IC50 [6]: > 10 µM
IC50 [14]: 0.059 µM
IC50 [9]: > 10 µM
Estimated increase of AUC of drugs predominantly biotransformed by CYP3A4 [15]: 22–321%
IC50 [16]: 0.26 to 0.62 µM
IC50 [17]: > 50 µM
IC50 [10]: > 10 µM
IC50 [5, 21]: > 50 µM
IC50 [5, 22]: > 50 µM
IC50 [18]: 12.5 µM
IC50 [12]: > 10 µM

COc1c2c(cc3c1-c1c(cc4c(c1OC)OCO4)C[C@H](C)[C@H](C)C3)OCO2 [Wuweizisu C, wuweizisu C]
IC50 [1, 19]: 1.4 µM
IC50 [1, 20]: 2.9 µM
IC50 [5, 21]: > 50 µM
IC50 [5, 22]: > 50 µM
